# From US6641797B2, “Perfluoroalkyl-containing complexes with sugar radicals, process for their production and their use” (Schering Aktiengesellschaft, priority 2000, dated 2003)
# Assays:
# Format in all cases: in vivo
# [1] = test system: rats with acute induced myocardial infarction; test: Infarction visualization (MRT) after intravenous administration in rats with acute induced myocardial infarction; details: 100 μmol of Gd/kg i.v.; 24 hours; T1-weighted spin-echo, 1.5 T; confirmed by NBT staining
# Procedure: Infarction Visualization (MRT) After Intravenous Administration of the Contrast Medium According to the Invention of Example 1 in Rats
# MR images were prepared of the heart (in vivo and post mortem) 24 hours after intravenous administration of 100 μmol of Gd/kg of body weight of the title compound of Example 1 in rats with acute induced myocardial infarction. […] The successful indication of an acute myocardial infarction was confirmed using NBT staining.
# [2] = Organ distribution (including tumor and lymph node concentration) after intravenous administration in prostate-cancer-carrying rats; details: 225 μmol total Gd/kg i.v.
# Excerpt: Organ Distribution (Including Tumor and Lymph Node Concentration) After Intravenous Administration of the Contrast Medium According to the Invention of Example 1 in Prostate-cancer-carrying Rats
# After intravenous administration of 225 μmol of total gadolinium/kg of body weight of the title compound of Example 1 in rats (Cop-inbreeding Dunning R3327 MAT-Lu prostate cancer i.m.-implanted 12 days earlier), the metal content in various organs, in tumors and in lymph nodes (pooled as mesenteral and peripheral lymph nodes) was determined 10 minutes, 1 and 24 hours after administration (MW±SD, n=3).
# [3] = test system: VX2-tumor-carrying rabbits; test: Lymph node visualization (MRT) after intravenous administration in VX2-tumor-carrying rabbits; details: 200 μmol of Gd/kg i.v.
# Excerpt: Lymph Node Visualization (MRT) After Intravenous Administration of the Contrast Medium According to the Invention of Example 1 in VX2-tumor-carrying Rabbits
# [4] = Intestine (emptied), 10 min p.i.
# [5] = Muscle (only tissue sample from right lower leg muscle), 10 min p.i.
# [6] = Muscle (only tissue sample from right lower leg muscle), 1 h p.i.
# [7] = Muscle (only tissue sample from right lower leg muscle), 24 h p.i.
# [8] = Remainder of body (also contains the remainder of the blood), 24 h p.i.
# [9] = mes. LK (pooled mesenteral lymph nodes), 10 min p.i.
# [10] = mes. LK (pooled mesenteral lymph nodes), 1 h p.i.
# [11] = mes. LK (pooled mesenteral lymph nodes), 24 h p.i.
# [12] = periph. LK (pooled peripheral lymph nodes), 10 min p.i.
# [13] = periph. LK (pooled peripheral lymph nodes), 1 h p.i.
# [14] = periph. LK (pooled peripheral lymph nodes), 24 h p.i.
smiles,measurement,setting,value
CC(C(=O)NCC(=O)NCCCC[C@H](NC(=O)CO[C@H]1O[C@H](CO)[C@@H](O)[C@H](O)[C@@H]1O)C(=O)N1CCN(S(=O)(=O)C(F)(F)C(F)(F)C(F)(F)C(F)(F)C(F)(F)C(F)(F)C(F)(F)C(F)(F)F)CC1)N1CCN(CC(=O)[O-])CCN(CC(=O)[O-])CCN(CC(=O)[O-])CC1.[Gd+3] (some centres unmarked) [Example 1],MR signal in the infarction area,[1],strong signal rise
same,"% Dose per Total Tissue, Balance","[2]; Balance, 24 h p.i.",94.1 ± 6.41 % Dose
same,% Dose per Total Tissue,"[2]; Blood (58 ml of blood/kg of body weight), 10 min p.i.",42.95 ± 2.59 % Dose
same,% Dose per Total Tissue,"[2]; Blood (58 ml of blood/kg of body weight), 1 h p.i.",21.47 ± 1.78 % Dose
same,% Dose per Total Tissue,"[2]; Blood (58 ml of blood/kg of body weight), 24 h p.i.",1.78 ± 0.03 % Dose
same,Gd-Concentration,"[2]; Blood, 10 min p.i.",1665 ± 110 µmol/L
same,Gd-Concentration,"[2]; Blood, 1 h p.i.",825 ± 67 µmol/L
same,Gd-Concentration,"[2]; Blood, 24 h p.i.",214 ± 9 µmol/L
same,% Dose per Total Tissue,"[2]; Brain, 10 min p.i.",0.15 ± 0.03 % Dose
same,Gd-Concentration,"[2]; Brain, 10 min p.i.",47 ± 13 µmol/L
same,% Dose per Total Tissue,"[2]; Brain, 1 h p.i.",0.08 ± 0.02 % Dose
same,Gd-Concentration,"[2]; Brain, 1 h p.i.",26 ± 5 µmol/L
same,% Dose per Total Tissue,"[2]; Brain, 24 h p.i.",0.04 ± 0.00 % Dose
same,Gd-Concentration,"[2]; Brain, 24 h p.i.",14 ± 2 µmol/L
same,% Dose per Total Tissue,[2]; Feces 0-24 h,21.85 ± 1.46 % Dose
same,Gd-Concentration,[2]; Feces 0-24 h,3128 ± 204 µmol/L
same,% Dose per Total Tissue,"[2]; Femur, 10 min p.i.",0.65 ± 0.01 % Dose
same,Gd-Concentration,"[2]; Femur, 10 min p.i.",184 ± 4 µmol/L
same,% Dose per Total Tissue,"[2]; Femur, 1 h p.i.",0.46 ± 0.03 % Dose
same,Gd-Concentration,"[2]; Femur, 1 h p.i.",127 ± 9 µmol/L
same,% Dose per Total Tissue,"[2]; Femur, 24 h p.i.",0.31 ± 0.03 % Dose
same,Gd-Concentration,"[2]; Femur, 24 h p.i.",87 ± 6 µmol/L
same,% Dose per Total Tissue,"[2]; Heart, 10 min p.i.",0.46 ± 0.01 % Dose
same,Gd-Concentration,"[2]; Heart, 10 min p.i.",438 ± 29 µmol/L
same,% Dose per Total Tissue,"[2]; Heart, 1 h p.i.",0.31 ± 0.03 % Dose
same,Gd-Concentration,"[2]; Heart, 1 h p.i.",289 ± 24 µmol/L
same,% Dose per Total Tissue,"[2]; Heart, 24 h p.i.",0.14 ± 0.02 % Dose
same,Gd-Concentration,"[2]; Heart, 24 h p.i.",131 ± 9 µmol/L
same,% Dose per Total Tissue,[2]; [4],2.91 ± 0.18 % Dose
same,Gd-Concentration,[2]; [4],342 ± 16 µmol/L
same,% Dose per Total Tissue,"[2]; Intestine (emptied), 1 h p.i.",3.41 ± 1.02 % Dose
same,Gd-Concentration,"[2]; Intestine (emptied), 1 h p.i.",409 ± 67 µmol/L
same,% Dose per Total Tissue,"[2]; Intestine (emptied), 24 h p.i.",2.14 ± 0.14 % Dose
same,Gd-Concentration,"[2]; Intestine (emptied), 24 h p.i.",243 ± 22 µmol/L
same,% Dose per Total Tissue,"[2]; Kidney, 10 min p.i.",5.02 ± 1.29 % Dose
same,Gd-Concentration,"[2]; Kidney, 10 min p.i.",2081 ± 537 µmol/L
same,% Dose per Total Tissue,"[2]; Kidney, 1 h p.i.",2.15 ± 0.23 % Dose
same,Gd-Concentration,"[2]; Kidney, 1 h p.i.",883 ± 94 µmol/L
same,% Dose per Total Tissue,"[2]; Kidney, 24 h p.i.",2.97 ± 0.21 % Dose
same,Gd-Concentration,"[2]; Kidney, 24 h p.i.",1178 ± 139 µmol/L
same,% Dose per Total Tissue,"[2]; Liver, 10 min p.i.",5.46 ± 0.16 % Dose
same,Gd-Concentration,"[2]; Liver, 10 min p.i.",387 ± 26 µmol/L
same,% Dose per Total Tissue,"[2]; Liver, 1 h p.i.",5.81 ± 0.16 % Dose
same,Gd-Concentration,"[2]; Liver, 1 h p.i.",364 ± 8 µmol/L
same,% Dose per Total Tissue,"[2]; Liver, 24 h p.i.",11.65 ± 0.97 % Dose
same,Gd-Concentration,"[2]; Liver, 24 h p.i.",746 ± 34 µmol/L
same,% Dose per Total Tissue,"[2]; Lung, 10 min p.i.",1.69 ± 0.06 % Dose
same,Gd-Concentration,"[2]; Lung, 10 min p.i.",837 ± 32 µmol/L
same,% Dose per Total Tissue,"[2]; Lung, 1 h p.i.",1.38 ± 0.08 % Dose
same,Gd-Concentration,"[2]; Lung, 1 h p.i.",658 ± 29 µmol/L
same,% Dose per Total Tissue,"[2]; Lung, 24 h p.i.",0.73 ± 0.04 % Dose
same,Gd-Concentration,"[2]; Lung, 24 h p.i.",370 ± 34 µmol/L
same,% Dose per Total Tissue,[2]; [5],10.11 ± 0.03 % Dose
same,Gd-Concentration,[2]; [5],99 ± 5 µmol/L
same,% Dose per Total Tissue,[2]; [6],0.09 ± 0.03 % Dose
same,Gd-Concentration,[2]; [6],78 ± 1 µmol/L
same,% Dose per Total Tissue,[2]; [7],0.04 ± 0.00 % Dose
same,Gd-Concentration,[2]; [7],36 ± 1 µmol/L
same,% Dose per Total Tissue,"[2]; Pancreas, 10 min p.i.",0.26 ± 0.05 % Dose
same,Gd-Concentration,"[2]; Pancreas, 10 min p.i.",229 ± 27 µmol/L
same,% Dose per Total Tissue,"[2]; Pancreas, 1 h p.i.",0.21 ± 0.05 % Dose
same,Gd-Concentration,"[2]; Pancreas, 1 h p.i.",199 ± 30 µmol/L
same,% Dose per Total Tissue,"[2]; Pancreas, 24 h p.i.",0.17 ± 0.02 % Dose
same,Gd-Concentration,"[2]; Pancreas, 24 h p.i.",130 ± 13 µmol/L
same,% Dose per Total Tissue,[2]; [8],30.83 ± 4.05 % Dose
same,Gd-Concentration,[2]; [8],225 ± 31 µmol/L
same,% Dose per Total Tissue,"[2]; Spleen, 10 min p.i.",0.39 ± 0.03 % Dose
same,Gd-Concentration,"[2]; Spleen, 10 min p.i.",548 ± 22 µmol/L
same,% Dose per Total Tissue,"[2]; Spleen, 1 h p.i.",0.39 ± 0.02 % Dose
same,Gd-Concentration,"[2]; Spleen, 1 h p.i.",487 ± 25 µmol/L
same,% Dose per Total Tissue,"[2]; Spleen, 24 h p.i.",0.57 ± 0.03 % Dose
same,Gd-Concentration,"[2]; Spleen, 24 h p.i.",645 ± 27 µmol/L
same,% Dose per Total Tissue,"[2]; Stomach (emptied), 10 min p.i.",0.57 ± 0.04 % Dose
same,Gd-Concentration,"[2]; Stomach (emptied), 10 min p.i.",231 ± 10 µmol/L
same,% Dose per Total Tissue,"[2]; Stomach (emptied), 1 h p.i.",0.54 ± 0.12 % Dose
same,Gd-Concentration,"[2]; Stomach (emptied), 1 h p.i.",219 ± 46 µmol/L
same,% Dose per Total Tissue,"[2]; Stomach (emptied), 24 h p.i.",0.37 ± 0.06 % Dose
same,Gd-Concentration,"[2]; Stomach (emptied), 24 h p.i.",138 ± 9 µmol/L
same,"% Dose per Total Tissue, Sum of Organs","[2]; Sum of Organs (less the remainder of the body), 10 min p.i.",60.47 ± 3.68 % Dose
same,"% Dose per Total Tissue, Sum of Organs","[2]; Sum of Organs (less the remainder of the body), 1 h p.i.",36.33 ± 2.51 % Dose
same,"% Dose per Total Tissue, Sum of Organs","[2]; Sum of Organs, 24 h p.i.",52.01 ± 5.22 % Dose
same,% Dose per Total Tissue,"[2]; Tumor, 10 min p.i.",0.28 ± 0.10 % Dose
same,Gd-Concentration,"[2]; Tumor, 10 min p.i.",185 ± 36 µmol/L
same,% Dose per Total Tissue,"[2]; Tumor, 1 h p.i.",0.21 ± 0.02 % Dose
same,Gd-Concentration,"[2]; Tumor, 1 h p.i.",184 ± 13 µmol/L
same,% Dose per Total Tissue,"[2]; Tumor, 24 h p.i.",0.31 ± 0.01 % Dose
same,Gd-Concentration,"[2]; Tumor, 24 h p.i.",199 ± 19 µmol/L
same,% Dose per Total Tissue,[2]; Urine 0-24 h,20.20 ± 4.41 % Dose
same,Gd-Concentration,[2]; Urine 0-24 h,94 ± 20 µmol/L
same,% Dose per Total Tissue,[2]; [9],0.11 ± 0.04 % Dose
same,Gd-Concentration,[2]; [9],359 ± 72 µmol/L
same,% Dose per Total Tissue,[2]; [10],0.24 ± 0.02 % Dose
same,Gd-Concentration,[2]; [10],697 ± 42 µmol/L
same,% Dose per Total Tissue,[2]; [11],0.32 ± 0.04 % Dose
same,Gd-Concentration,[2]; [11],854 ± 135 µmol/L
same,% Dose per Total Tissue,[2]; [12],0.10 ± 0.01 % Dose
same,Gd-Concentration,[2]; [12],229 ± 15 µmol/L
same,% Dose per Total Tissue,[2]; [13],0.20 ± 0.03 % Dose
same,Gd-Concentration,[2]; [13],436 ± 44 µmol/L
same,% Dose per Total Tissue,[2]; [14],0.18 ± 0.01 % Dose
same,Gd-Concentration,[2]; [14],373 ± 24 µmol/L
same,MR signal in lymph node metastasis,[3]; 24 hours after administration,considerable signal rise
same,MR signal rise in healthy lymph node tissue,[3]; 24 hours after administration,reduced
same,MR enhancement of the primary tumor,[3]; 24 hours p.i.,enhancement also propagates out from the center of the tumor
same,MR signal in lymph node metastasis,"[3]; early after administration, confirmed histologically",without a signal rise
same,MR signal in healthy lymph node tissue,"[3]; iliac lymph nodes, T1-weighted gradient-echo, 1.5 T, early after administration",strong signal rise
same,MR enhancement of the primary tumor,"[3]; immediately after administration, especially the periphery",considerable enhancement
